Source: patent US20210308089A1, “METHODS OF TREATING AND/OR PREVENTING VIRAL INFECTIONS AND/OR DISEASES CAUSED BY VIRUSES IN A SUBJECT IN NEED THEREOF” (priority 2020, published 2021)

System: patients of the REDUCE-IT and earlier EPA placebo-controlled trials
Assay type: in vivo, human
Conditions: R-I

CC/C=C\C/C=C\C/C=C\C/C=C\C/C=C\CCCC(=O)OCC [icosapent ethyl, eicosapentaenoic acid ethyl ester]
ARR: Platelet count: PCS Low <100 × 10^3/uL: −0.6% | ARR: SBP High (≥160 mmHg): −1.7% | ARR: SBP High and rose ≥20 mmHg: −1.1% | ARR: SBP Low (≤90 mmHg): 0.5% | ARR: SBP dropped ≥20 mmHg: 2.6% | ARR: SBP low and dropped ≥20 mmHg: 0.2% | ARR: SBP rose ≥20 mmHg: −0.7% | ARR: Urate high (Day 120): 4.4% | ARR: Urate high (Day 360): 3.9% | ARR: Urate high (Day 720): 3.4% | ARR: Urate high (Day 1080): 1.2% | ARR: Urate high (Day 1440): 1.3% | ARR: Urate high (Day 1800): 1.0% | ARR: Urate shift: normal to high (Day 120): 2.8% | ARR: Urate shift: normal to high (Day 360): 3.0% | ARR: Urate shift: normal to high (Day 720): 2.5% | ARR: Urate shift: normal to high (Day 1080): 0.8% | ARR: Urate shift: normal to high (Day 1440): 0.6% | ARR: Urate shift: normal to high (Day 1800): 0.2% | ARR: Urate shift: normal to low (Day 120): 0.1% | ARR: Urate shift: normal to low (Day 360): −0.1% | ARR: Urate shift: normal to low (Day 720): −0.2% | ARR: Urate shift: normal to low (Day 1080): −0.1% | ARR: Urate shift: normal to low (Day 1440): −0.4% | ARR: Uric acid PCS High >7.5 mg/dL (Women): 0.8% | ARR: Uric acid PCS High >8.0 mg/dL (Men): 4.2% | ARR: Uric acid PCS Low <1.9 mg/dL (Women): 0.0% | ARR: Uric acid PCS Low <2.5 mg/dL (Men): −0.2% | NNT: ALP high (Day 120): 67 | NNT: ALP high (Day 360): 50 | NNT: ALP high (Day 720): 41 | NNT: ALP high (Day 1080): 33 | NNT: ALP high (Day 1440): 34 | NNT: ALP high (Day 1800): 37 | NNT: ALP shift: normal to high (Day 120): 78 | NNT: ALP shift: normal to high (Day 360): 54 | NNT: ALP shift: normal to high (Day 720): 39 | NNT: ALP shift: normal to high (Day 1080): 34 | NNT: ALP shift: normal to high (Day 1440): 37 | NNT: ALP shift: normal to high (Day 1800): 39 | NNT: ALP shift: normal to low (Day 120): −267 | NNT: ALP shift: normal to low (Day 360): −359 | NNT: ALP shift: normal to low (Day 720): −252 | NNT: ALP shift: normal to low (Day 1080): −360 | NNT: ALP shift: normal to low (Day 1440): −956 | NNT: Albumin high (Day 120): −133 | NNT: Albumin high (Day 360): −138 | NNT: Albumin high (Day 720): −156 | NNT: Albumin high (Day 1080): −140 | NNT: Albumin high (Day 1440): −132 | NNT: Albumin shift: normal to high (Day 120): −123 | NNT: Albumin shift: normal to high (Day 360): −137 | NNT: Albumin shift: normal to high (Day 720): −140 | NNT: Albumin shift: normal to high (Day 1080): −248 | NNT: Albumin shift: normal to high (Day 1440): −145 | NNT: Bilirubin >1x ULN to 2x ULN: −29 | NNT: Bilirubin >2x ULN to 3x ULN: −497 | NNT: Bilirubin high (Day 120): −42 | NNT: Bilirubin high (Day 360): −50 | NNT: Bilirubin high (Day 720): −38 | NNT: Bilirubin high (Day 1080): −50 | NNT: Bilirubin high (Day 1440): −40 | NNT: Bilirubin high (Day 1800): −43 | NNT: Bilirubin shift: normal to high (Day 120): −77 | NNT: Bilirubin shift: normal to high (Day 360): −80 | NNT: Bilirubin shift: normal to high (Day 720): −76 | NNT: Bilirubin shift: normal to high (Day 1080): −95 | NNT: Bilirubin shift: normal to high (Day 1440): −57 | NNT: Bilirubin shift: normal to high (Day 1800): −81 | NNT: Calcium high (Day 120): 430 | NNT: Calcium high (Day 360): 1019 | NNT: Calcium high (Day 720): 325 | NNT: Calcium low (Day 120): −1944 | NNT: Calcium low (Day 360): −410 | NNT: Calcium low (Day 720): −567 | NNT: DBP High (≥100 mmHg): −165 | NNT: DBP High and Rose ≥10 mmHg: −264 | NNT: DBP Low (≤50 mmHG): −794 | NNT: DBP Low and dropped ≥10 mmHg: −3916 | NNT: DBP dropped ≥10 mmHG: −32 | NNT: DBP rose ≥10 mmHg: 158 | NNT: High platelets (Day 720): −162 | NNT: Low platelets (Day 360): 54 | NNT: Low platelets (Day 720): 144 | NNT: Low platelets (Day 1080): 85 | NNT: Platelet count: PCS Low <100 × 10^3/uL: 166 | NNT: SBP High (≥160 mmHg): 58 | NNT: SBP High and rose ≥20 mmHg: 87 | NNT: SBP Low (≤90 mmHg): −221 | NNT: SBP dropped ≥20 mmHg: −38 | NNT: SBP low and dropped ≥20 mmHg: −497 | NNT: SBP rose ≥20 mmHg: 140 | NNT: Urate high (Day 120): −22 | NNT: Urate high (Day 360): −26 | NNT: Urate high (Day 720): −29 | NNT: Urate high (Day 1080): −81 | NNT: Urate high (Day 1440): −76 | NNT: Urate high (Day 1800): −103 | NNT: Urate shift: normal to high (Day 120): −36 | NNT: Urate shift: normal to high (Day 360): −33 | NNT: Urate shift: normal to high (Day 720): −39 | NNT: Urate shift: normal to high (Day 1080): −127 | NNT: Urate shift: normal to high (Day 1440): −160 | NNT: Urate shift: normal to high (Day 1800): −422 | NNT: Urate shift: normal to low (Day 120): −1647 | NNT: Urate shift: normal to low (Day 360): 1418 | NNT: Urate shift: normal to low (Day 720): 533 | NNT: Urate shift: normal to low (Day 1080): 740 | NNT: Urate shift: normal to low (Day 1440): 280 | NNT: Uric acid PCS High >7.5 mg/dL (Women): −120 | NNT: Uric acid PCS High >8.0 mg/dL (Men): −24 | NNT: Uric acid PCS Low <1.9 mg/dL (Women): −1.58e+07 | NNT: Uric acid PCS Low <2.5 mg/dL (Men): 569 | Placebo-Adjusted % Change: Alkaline phosphatase (Day 120): −10.4% | Placebo-Adjusted % Change: Alkaline phosphatase (Day 360): −12.5% | Placebo-Adjusted % Change: Alkaline phosphatase (Day 720): −12.6% | Placebo-Adjusted % Change: Alkaline phosphatase (Day 1080): −14.1% | Placebo-Adjusted % Change: Alkaline phosphatase (Day 1440): −13.1% | Placebo-Adjusted % Change: DBP (Day 120): −.9% | Placebo-Adjusted % Change: DBP (Day 360): −.8% | Placebo-Adjusted % Change: DBP (Day 720): −.6% | Placebo-Adjusted % Change: DBP (Day 1080): −.5% | Placebo-Adjusted % Change: DBP (Day 1440): −.4% | Placebo-Adjusted % Change: SBP (Day 120): −1% | Placebo-Adjusted % Change: SBP (Day 360): −1.1% | Placebo-Adjusted % Change: SBP (Day 720): −1% | Placebo-Adjusted % Change: SBP (Day 1080): −1.1% | Placebo-Adjusted % Change: SBP (Day 1440): −.9% | Placebo-Adjusted % Change: Urate (Day 120): +4.31% | Placebo-Adjusted % Change: Urate (Day 360): +4.07% | Placebo-Adjusted % Change: Urate (Day 720): +3.66% | Placebo-Adjusted % Change: Urate (Day 1080): +2.94% | Placebo-Adjusted % Change: Urate (Day 1440): +3.23% | Risk Ratio (95% CI): ALP high (Day 120): 0.623 (0.485 to 0.801) 2 | Risk Ratio (95% CI): ALP high (Day 360): 0.542 (0.420 to 0.700) 3 | Risk Ratio (95% CI): ALP high (Day 720): 0.568 (0.449 to 0.717) 3 | Risk Ratio (95% CI): ALP high (Day 1080): 0.486 (0.375 to 0.630) 3 | Risk Ratio (95% CI): ALP high (Day 1440): 0.483 (0.362 to 0.644) 3 | Risk Ratio (95% CI): ALP high (Day 1800): 0.527 (0.362 to 0.767) 3 | Risk Ratio (95% CI): ALP shift: normal to high (Day 120): 0.401 (0.267 to 0.603) 3 | Risk Ratio (95% CI): ALP shift: normal to high (Day 360): 0.335 (0.227 to 0.497) 4 | Risk Ratio (95% CI): ALP shift: normal to high (Day 720): 0.397 (0.291 to 0.541) 4
